According to the NIST ThermoML archive (doi:10.1016/j.jct.2012.03.020):

Columns and labels:
[1] = mn = molality of the nth substance listed, in mol/kg; details: 101 kPa, Liquid, Pycnometric method
[2] = refractive index (Na D-line) (dimensionless); mn = molality of the nth substance listed, in mol/kg; details: 101 kPa, Liquid, Standard Abbe refractometry

O=C(c1ccc([N+](=O)[O-])cc1)N(O)c1ccccc1 [N-hydroxy-4-nitro-N-phenylbenzamide] + CN(C)C=O
Details | mass density, 298.15 K [kg/m3] | mass density, 303.15 K [kg/m3] | mass density, 308.15 K [kg/m3] | mass density, 313.15 K [kg/m3] | refractive index, 298.15 K | refractive index, 303.15 K | refractive index, 308.15 K | refractive index, 313.15 K
[1], m1 = 0.0234 | 947.5 | 942.1 | 938.1 | 932.8 | – | – | – | –
[1], m1 = 0.0469 | 949.7 | 944.4 | 940.5 | 935.3 | – | – | – | –
[1], m1 = 0.0703 | 951.9 | 946.7 | 942.8 | 937.7 | – | – | – | –
[1], m1 = 0.0938 | 954 | 948.9 | 945.1 | 940 | – | – | – | –
[1], m1 = 0.1172 | 956.1 | 951.1 | 947.3 | 942.3 | – | – | – | –
[1], m1 = 0.1407 | 958.2 | 953.2 | 949.5 | 944.5 | – | – | – | –
[1], m1 = 0.1641 | 960.2 | 955.3 | 951.6 | 946.7 | – | – | – | –
[1], m1 = 0.1876 | 962.2 | 957.4 | 953.7 | 948.8 | – | – | – | –
[1], m1 = 0.211 | 964.2 | 959.4 | 955.8 | 950.8 | – | – | – | –
[1], m1 = 0.2345 | 966.1 | 961.4 | 957.8 | 952.9 | – | – | – | –
[2], m1 = 0.0234 | – | – | – | – | 1.428 | 1.4264 | 1.4242 | 1.4223
[2], m1 = 0.0469 | – | – | – | – | 1.4289 | 1.4274 | 1.4254 | 1.4235
[2], m1 = 0.0703 | – | – | – | – | 1.4294 | 1.4279 | 1.4259 | 1.4244
[2], m1 = 0.0938 | – | – | – | – | 1.4299 | 1.4285 | 1.4266 | 1.4249
[2], m1 = 0.1172 | – | – | – | – | 1.43 | 1.429 | 1.4271 | 1.4258
[2], m1 = 0.1407 | – | – | – | – | 1.4305 | 1.4295 | 1.4276 | 1.4266
[2], m1 = 0.1641 | – | – | – | – | 1.4315 | 1.4302 | 1.4286 | 1.4271
[2], m1 = 0.1876 | – | – | – | – | 1.4325 | 1.4311 | 1.4292 | 1.4275
[2], m1 = 0.211 | – | – | – | – | 1.4329 | 1.4319 | 1.4301 | 1.4284
[2], m1 = 0.2345 | – | – | – | – | 1.433 | 1.4322 | 1.4304 | 1.4291

O=C(c1ccccc1)N(O)c1ccccc1 [N-phenylbenzohydroxamic acid] + CN(C)C=O
Details | mass density, 298.15 K [kg/m3] | mass density, 303.15 K [kg/m3] | mass density, 308.15 K [kg/m3] | mass density, 313.15 K [kg/m3] | refractive index, 298.15 K | refractive index, 303.15 K | refractive index, 308.15 K | refractive index, 313.15 K
[1], m1 = 0.0234 | 947.5 | 942.1 | 938.1 | 932.9 | – | – | – | –
[1], m1 = 0.0469 | 949.7 | 944.4 | 940.5 | 935.4 | – | – | – | –
[1], m1 = 0.0703 | 951.8 | 946.6 | 942.8 | 937.8 | – | – | – | –
[1], m1 = 0.0938 | 953.9 | 948.8 | 945.1 | 940.1 | – | – | – | –
[1], m1 = 0.1172 | 955.9 | 950.9 | 947.3 | 942.4 | – | – | – | –
[1], m1 = 0.1407 | 957.9 | 953 | 949.5 | 944.5 | – | – | – | –
[1], m1 = 0.1641 | 959.9 | 954.9 | 951.5 | 946.6 | – | – | – | –
[1], m1 = 0.1876 | 961.8 | 956.9 | 953.6 | 948.6 | – | – | – | –
[1], m1 = 0.211 | 963.7 | 958.8 | 955.6 | 950.6 | – | – | – | –
[1], m1 = 0.2345 | 965.4 | 960.7 | 957.5 | 952.5 | – | – | – | –
[2], m1 = 0.0234 | – | – | – | – | 1.4275 | 1.426 | 1.4238 | 1.422
[2], m1 = 0.0469 | – | – | – | – | 1.4277 | 1.4269 | 1.4249 | 1.423
[2], m1 = 0.0703 | – | – | – | – | 1.428 | 1.4271 | 1.4259 | 1.424
[2], m1 = 0.0938 | – | – | – | – | 1.4285 | 1.4274 | 1.4266 | 1.425
[2], m1 = 0.1172 | – | – | – | – | 1.4288 | 1.4275 | 1.427 | 1.4261
[2], m1 = 0.1407 | – | – | – | – | 1.4289 | 1.428 | 1.4273 | 1.4265
[2], m1 = 0.1641 | – | – | – | – | 1.4295 | 1.4285 | 1.4276 | 1.4271
[2], m1 = 0.1876 | – | – | – | – | 1.43 | 1.4289 | 1.428 | 1.4273
[2], m1 = 0.211 | – | – | – | – | 1.4305 | 1.4295 | 1.4282 | 1.4274
[2], m1 = 0.2345 | – | – | – | – | 1.431 | 1.43 | 1.4288 | 1.4275
